In data set [1] the test system is arachidonic acid-induced edema in mice. Put plainly: Arachidonic acid-induced mouse ear inflammation (ear swelling). The data set is classed as in vivo, male Balb/c mice. Conditions: po; for ED50: mouse, read-out: AAEE(MOUSE ED50 mg/kg (po)). On the procedure:
In the tests used to determine activity as 5-lipoxygenase pathway inhibitors, male Balb/c mice (20-28 g), were used. All mice were obtained from Charles River Breeding Laboratories, Kingston, N.Y. Within a single experiment, mice were age matched.
Reagents were employed as follows: Compounds of Formula (I) were each used as the free base. The compounds were homogenized in 0.5% tragacanth. Compounds were administered by […] at the indicated dose in a final volume of 10 ml/kg.
Arachidonic acid in acetone (2 mg/20 »l) was applied to the inner surface of the left ear. The thickness of both ears was then measured with a dial micrometer one hour after treatment, and the data were expressed as the change in thickness (10⁻³ cm) between treated and untreated ears.
Test compounds were given orally in acid/saline at the times indicated in the text prior to the topical application of arachidonic acid.
Dermatol., 82, 367-371 (1984)].

Data set [2] has as its system Eicosanoid Production in Human Whole Blood. Kind of data set: Inhibition of eicosanoid production following calcium ionophore stimulation in human whole blood. The conditions noted are these: human blood stimulated with calcium ionophore. The format is cell-based. On the procedure: The eicosanoids, which include the 5-lipoxygenase products LTB , transLTB₄, 20-hydroxyLTB₄, 5-HETE, and the 12-lipoxygenase product are extracted from the whole blood following A23187 calcium ionophore stimulation. The extracts are separated by reverse phase high pressure liquid chromatography and quantified by absorbance methods.
Venous human blood is collected into polypropylene tubes containing 1% heparin. The blood is then aliquoted into 4.5 ml volumes and preincubated at 37°C for 10 minutes in polypropylene tubes (15 ml size). Compound or carrier (50 »L dimethylsulfoxide) is added 5 minutes prior to stimulation. Calcium ionophore (0.5ml) is added, and the blood incubated for 10 minutes. Prostaglancin B₂(1 nmole) is added, and the blood extracted as described below.
The samples are centrifuged at 1000xg for 15 minutes at 5°C. The plasma is collected, and one volume of methanol is added to the plasma. This suspension is then centrifuged at 1000xg for ten minutes at 5°C. The supernatant is collected and diluted with 1.5 volumes of chilled aqueous 1% formic acid: 1% triethylamine. This mixture is loaded onto a preconditioned J.T. Baker C18 SPE cartridge (Phillipsburg, NJ) at a flow rate of 1-2 ml/minute. (The cartridge is preconditioned according to manufacture's recommendations.) The absorbed sample is washed in the following order with three (3) ml each of (i) aqueous 1% formic acid: 1% triethylamine; (ii) petroleium ether; and (iii) 20% acetonitrile: 1% triethylamine.
The eicosanoids are eluted in 3ml of 70% acetonitrile: 1% triethylamine. The solvent is removed under vacuum. The sample is resuspended in 200»L of 50% methanol buffered with ammonium acetate.
The sample (175 »l) is loaded into a WATERS (Milbord, MA) RCM NOVA PAK C18 (100x8mm) column with the starting mobile phase of 90% A (A = 10% acetonitrile buffered with 30mM ammonium acetate to pH6.8) and 10% B (B = 90% acetonitrile buffered with 30mM ammonium acetate to pH6.8). The flow rate for the separation is 2.5ml/minute. At one minute the %B is increased to 27% in a step fashion. By 12 minutes the %B has increased in a concave hyperbolic function (curve 9) to 40% and increases in a linear manner to 60% by 22 minutes. Under these developing conditions, the retention times for the eicosanoids are: 20-hydroxyLTB₄, 4.6 minutes; transLTB₄, 10 minutes; LTB₄, 10.5 minutes; 12-HETE, 10.4 minutes; 5-HETE, 21 minutes. The HPLC system consisted of WATERS 510 pumps, 840 controller, WISP injector and 990 detector.
The eicosanoids in the samples are verified by their retention times and their UV absorbance spectra. The peaks are quantified with reference to the internal standard and their absorbance response at their maximum absorbance wavelength.

The nature of data set [3]: In vivo metabolism (statement only).
Another data set concerns cynomolgus monkeys. Kind of data set: CNS activity / oral toxicity in cynomolgus monkeys. The conditions noted are these: cynomolgus monkey, in vivo. As to the method: Additional monkeys tolerated repeated doses of 45 mg/kg or 30 mg/kg and one animal tolerated an escalating dose schedule of 30-90-120 mg/kg.
The two monkeys administered 400 mg/kg were repeatedly administered this dose for 7 consecutive days; each animal experienced emesis within 1 to 5 hours of dosing after the 1st, 3rd and 4th doses, whereas only the female experienced emesis after the 5th, 6th and 7th doses. A complete necropsy, serum clinical chemistry, hematology and histological examination was completed on both monkeys.

Data set [4] deals with arachidonic acid-induced edema in mice. Kind of data set: Arachidonic acid-induced mouse ear inflammation (ear swelling). The format is in vivo, male Balb/c mice. The conditions noted are these: 1 h, 50 mg/kg s.c. or i.p., ear thickness one hour after 2 mg arachidonic acid.
Setting [5] is: 5-HETE, read-out: 5-LO, IC50 (uM) 5-HETE.
Setting [6] is: 12-HETE, read-out: 5-LO, IC50 (uM) 12-HETE.
Setting [7] is: LTB4, read-out: 5-LO, IC50 (uM) LTB4.
[8] abbreviates: tLTB4, read-out: 5-LO, IC50 (uM) tLTB4.

Data on 2 molecules can be found in patent EP0306300B1, “Pyrrolo(1,2-a)imidazole and imidazo(1,2-a)pyridine derivatives and their use as 5-lipoxygenase pathway inhibitors” (SMITHKLINE BEECHAM CORPORATION, priority 1987, dated 1989).

Molecules are shown by their SMILES. Where two headings read alike, the source gives them in different places.

A word on the inhibition: it is the change of the read-out against control, counted positive when it falls. A lower inhibition goes with little suppression. Broadly, the IC50 is the midpoint of a concentration-inhibition curve. In data set [1] (Mus musculus, 1 h, 50 mg/kg p.o., ear thickness one hour after 2 mg arachidonic acid), `C[S+]([O-])c1ccc(-c2nc3n(c2-c2ccncc2)CCC3)cc1` (stereo not shown) [Compound 2, 2-(4-Methylsulfinylphenyl)-3-(4-pyridyl)-6,7-dihydro-[5H]-pyrrolo[1,2-a]imidazole] came in with an inhibition at 50 mg/kg of 44%. Further, the ED50 in data set [1] worked out at 44 mg/kg. The IC50 in data set [2] (setting [5]), in data set [2] (setting [6]), in data set [2] (setting [7]) and in data set [2] (setting [8]) was 80 µM each time. Also, the metabolism in vivo result in data set [3] was “metabolized in vivo to compound D”.

As to `CSc1ccc(-c2nc3n(c2-c2ccncc2)CCC3)cc1` [Compound 1, 2-(4-Methylthiophenyl)-3-(4-pyridyl)-6,7-dihydro-[5H]-pyrrolo[1,2-a]imidazole], in data set [1], the ED50 was 20 mg/kg. The IC50 worked out at 30 µM in data set [2] (setting [5]); 60 µM in data set [2] (setting [6]); 30 µM in data set [2] (20-OH-LTR4, read-out: 5-LO, IC50 (uM) 20-OH-LTR4); 30 µM in data set [2] (setting [7]); 30 µM in data set [2] (setting [8]). The “Adverse CNS activity” value with cynomolgus monkeys is given as “+”. Besides, the “CNS toxicity / adverse CNS effects (comparative statement)” value with cynomolgus monkeys is on record as “less CNS toxicity than prior art compound A”. In data set [4], this molecule showed an inhibition at 50 mg/kg of 62%.
